From patent US9387200B2, “Isothiazole-pyridine derivatives as modulators of HIF (hypoxia inducible factor) activity” (FibroGen, Inc., priority 2008, dated 2016)

Each molecule was assayed against T1, HIF-PH2 (Homo sapiens, UniProt Q9GZT9) (assay: HIF-PH assay (14CO2 capture, peptide-dependent turnover)). Conditions: compound concentration 22.22 μM.
T1 construct: made in house; host or cells: insect Hi5 cells
Assay type: biochemical
Source text: Ketoglutaric acid α-[1-^14C]-sodium salt, alpha-ketoglutaric acid sodium salt, and HPLC purified peptide may be obtained from commercial sources, e.g., Perkin-Elmer (Wellesley Mass.), Sigma-Aldrich, and SynPep Corp. (Dublin Calif.), respectively. Peptides for use in the assay may be fragments of HIFα as described above or as disclosed in International Publication WO 2005/118836, incorporated by reference herein. For example, a HIF peptide for use in the HIF-PH assay is [methoxycoumarin]-DLDLEALAPYIPADDDFQL-amide. HIF-PH, e.g., HIF-PH2 (EGLN1), can be expressed in, e.g., insect Hi5 cells, and partially purified, e.g., through a SP ion exchange chromatography column. Enzyme activity is determined by capturing ^14CO2 using an assay described by Kivirikko and Myllyla (1982, Methods Enzymol. 82:245-304). Assay reactions contain 50 mM HEPES (pH 7.4), 100 μM α-ketoglutaric acid sodium salt, 0.30 μCi/mL ketoglutaric acid α-[1-^14C]-sodium salt, 40 μM FeSO4, 1 mM ascorbate, 1541.8 units/mL Catalase, with or without 50 μM peptide substrate and various concentrations of compound of the invention. Reactions are initiated by addition of HIF-PH enzyme.
The peptide-dependent percent turnover is calculated by subtracting percent turnover in the absence of peptide from percent turnover in the presence of substrate peptide. Percent inhibition and IC50 are calculated using peptide-dependent percent turnover at given inhibitor concentrations. Calculation of IC50 values for each inhibitor is conducted using GraFit software (Erithacus Software Ltd., Surrey UK).
Representative compounds of the invention were analyzed using the HIF-PH assay described above. Table I below presents enzyme inhibition data for exemplary compounds against HIF-PH2, a representative HIF prolyl hydroxylase enzyme. By inhibiting HIF prolyl hydroxylase enzymes, compounds of the invention stabilize HIFα, which then combines with HIFβ to form an active transcription factor that increases expression of various genes involved in numerous beneficial cellular processes.

T1 sequence (Q9GZT9 whole entry, species assumed): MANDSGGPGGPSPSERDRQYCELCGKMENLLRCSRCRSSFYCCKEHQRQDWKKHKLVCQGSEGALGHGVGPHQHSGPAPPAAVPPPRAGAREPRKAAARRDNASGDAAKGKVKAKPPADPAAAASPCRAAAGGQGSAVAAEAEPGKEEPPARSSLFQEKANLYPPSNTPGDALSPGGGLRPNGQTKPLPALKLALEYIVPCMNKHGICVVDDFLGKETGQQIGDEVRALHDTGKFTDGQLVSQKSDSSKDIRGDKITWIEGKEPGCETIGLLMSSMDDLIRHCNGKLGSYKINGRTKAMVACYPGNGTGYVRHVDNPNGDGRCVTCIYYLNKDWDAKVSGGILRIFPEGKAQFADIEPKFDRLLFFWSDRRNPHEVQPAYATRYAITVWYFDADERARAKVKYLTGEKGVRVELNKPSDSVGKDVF

SMILES	inhibition at 22.22 µM [%]
N#Cc1ccc(-c2nc(C(=O)NCC(=O)O)c(O)c3c(-c4ccc(F)cc4)nsc23)cc1 [Example 11, {[7-(4-Cyano-phenyl)-3-(4-fluoro-phenyl)-4-hydroxy-isothiazolo[5,4-c]pyridine-5-carbonyl]-amino}-acetic acid]	91.5
O=C(O)CNC(=O)c1nc(-c2cn(Cc3ccccc3)nn2)c2snc(-c3ccc(Cl)cc3)c2c1O [Example 23, {[7-(1-Benzyl-1H-[1,2,3]triazol-4-yl)-3-(4-chloro-phenyl)-4-hydroxy-isothiazolo[5,4-c]pyridine-5-carbonyl]-amino}-acetic acid]	100
Cc1nsc2c(-c3cnccn3)nc(C(=O)NCC(=O)O)c(O)c12 [Example 40, [(4-Hydroxy-3-methyl-7-pyrazin-2-yl-isothiazolo[5,4-c]pyridine-5-carbonyl)-amino]-acetic acid]	70
O=C(O)CNC(=O)c1nc(-c2ccccc2)c2c(Cn3ccc4ccccc43)nsc2c1O [Example 42, [(7-Hydroxy-3-indol-1-ylmethyl-4-phenyl-isothiazolo[4,5-c]pyridine-6-carbonyl)-amino]-acetic acid]	100

More lines, now with the values ahead:

inhibition at 22.22 µM [%]	SMILES
97	O=C(O)CNC(=O)c1nc(Cc2ccccc2)c2snc(-c3ccc(Cl)cc3)c2c1O [Example 22, {[7-Benzyl-3-(4-chloro-phenyl)-4-hydroxy-isothiazolo[5,4-c]pyridine-5-carbonyl]-amino}-acetic acid]
97	O=C(O)CNC(=O)c1nc(-c2ccccc2)c2snc(-c3ccccc3)c2c1O [Example 45, [(4-Hydroxy-3,7-diphenyl-isothiazolo[5,4-c]pyridine-5-carbonyl)-amino]-acetic acid]
91	Cc1nc(C(=O)NCC(=O)O)c(O)c2c(-c3ccccc3)nsc12 [Example 44, [(4-Hydroxy-7-methyl-3-phenyl-isothiazolo[5,4-c]pyridine-5-carbonyl)-amino]-acetic acid]

Same assay, conditions: compound concentration 200 μM

SMILES	inhibition at 200 µM [%]
O=C(O)CNC(=O)c1nc(C(F)(F)F)c2snc(-c3ccc(Cl)cc3)c2c1O [Example 26, {[3-(4-Chloro-phenyl)-4-hydroxy-7-trifluoromethyl-isothiazolo[5,4-c]pyridine-5-carbonyl]-amino}-acetic acid]	100
C[C@H](NC(=O)c1ncc2snc(-c3ccc(Cl)cc3)c2c1O)C(=O)O [Example 19, (S)-2-{[3-(4-Chloro-phenyl)-4-hydroxy-isothiazolo[5,4-c]pyridine-5-carbonyl]-amino}-propionic acid]	100
CCc1nc(C(=O)NCC(=O)O)c(O)c2c(C)nsc12 [Example 46, [(7-Ethyl-4-hydroxy-3-methyl-isothiazolo[5,4-c]pyridine-5-carbonyl)-amino]-acetic acid]	99
COc1ccc(-c2nc(C(=O)NCC(=O)O)c(O)c3c(-c4ccc(Cl)cc4)nsc23)cc1 [Example 13, {[3-(4-Chloro-phenyl)-4-hydroxy-7-(4-methoxy-phenyl)-isothiazolo[5,4-c]pyridine-5-carbonyl]-amino}-acetic acid]	94.5
C#Cc1nc(C(=O)NCC(=O)O)c(O)c2c(-c3ccc(F)cc3)nsc12 [Example 6, {[7-Ethynyl-3-(4-fluoro-phenyl)-4-hydroxy-isothiazolo[5,4-c]pyridine-5-carbonyl]-amino}-acetic acid]	98.3
O=C(O)CNC(=O)c1ncc2snc(-c3ccc(Cl)cc3)c2c1O [Example 16, {[3-(4-Chloro-phenyl)-4-hydroxy-isothiazolo[5,4-c]pyridine-5-carbonyl]-amino}-acetic acid]	99.9
Cc1nsc2c(O)c(C(=O)NCC(=O)O)nc(C)c12 [Example 29, [(7-Hydroxy-3,4-dimethyl-isothiazolo[4,5-c]pyridine-6-carbonyl)-amino]-acetic acid]	100
C#Cc1nc(C(=O)NCC(=O)O)c(O)c2c(-c3ccc(Cl)cc3)nsc12 [Example 14, {[3-(4-Chloro-phenyl)-7-ethynyl-4-hydroxy-isothiazolo[5,4-c]pyridine-5-carbonyl]-amino}-acetic acid]	100
O=C(O)CNC(=O)c1ncc2snc(-c3ccc(F)cc3)c2c1O [Example 12, {[3-(4-Fluoro-phenyl)-4-hydroxy-isothiazolo[5,4-c]pyridine-5-carbonyl]-amino}-acetic acid]	98.9
COc1cccc(-c2nc(C(=O)NCC(=O)O)c(O)c3c(-c4ccc(Cl)cc4)nsc23)c1 [Example 20, {[3-(4-Chloro-phenyl)-4-hydroxy-7-(3-methoxy-phenyl)-isothiazolo[5,4-c]pyridine-5-carbonyl]-amino}-acetic acid]	88.9
CC(=O)c1nc(C(=O)NCC(=O)O)c(O)c2c(-c3ccc(Cl)cc3)nsc12 [Example 25, {[7-Acetyl-3-(4-chloro-phenyl)-4-hydroxy-isothiazolo[5,4-c]pyridine-5-carbonyl]-amino}-acetic acid]	100
COc1ccc(-c2nc(C(=O)NCC(=O)O)c(O)c3c(-c4ccc(Cl)cc4)nsc23)cn1 [Example 21, {[3-(4-Chloro-phenyl)-4-hydroxy-7-(6-methoxy-pyridin-3-yl)-isothiazolo[5,4-c]pyridine-5-carbonyl]-amino}-acetic acid]	77

Other lines, results leading:

inhibition at 200 µM [%]	SMILES
97.9	COc1ccc(-c2nc(C(=O)NCC(=O)O)c(O)c3c(-c4ccccc4)nsc23)cc1 [Example 2, {[4-Hydroxy-7-(4-methoxy-phenyl)-3-phenyl-isothiazolo[5,4-c]pyridine-5-carbonyl]-amino}-acetic acid]
98	O=C(O)CNC(=O)c1nc(Br)c2c(-c3ccccc3)nsc2c1O [Example 27, [(4-Bromo-7-hydroxy-3-phenyl-isothiazolo[4,5-c]pyridine-6-carbonyl)-amino]-acetic acid]
100	Cc1nsc2c(-c3ccccc3)nc(C(=O)NCC(=O)O)c(O)c12 [Example 30, [(4-Hydroxy-3-methyl-7-phenyl-isothiazolo[5,4-c]pyridine-5-carbonyl)-amino]-acetic acid]
98.2	O=C(O)CNC(=O)c1nc(-c2ccccc2)c2snc(-c3ccc(F)cc3)c2c1O [Example 10, {[3-(4-Fluoro-phenyl)-4-hydroxy-7-phenyl-isothiazolo[5,4-c]pyridine-5-carbonyl]-amino}-acetic acid]
99.1	O=C(O)CNC(=O)c1nc(-c2ccccn2)c2snc(-c3ccccc3)c2c1O [Example 4, [(4-Hydroxy-3-phenyl-7-pyridin-2-yl-isothiazolo[5,4-c]pyridine-5-carbonyl)-amino]-acetic acid]
100	Cc1nsc2c(-c3cccnc3)nc(C(=O)NCC(=O)O)c(O)c12 [Example 37, [(4-Hydroxy-3-methyl-7-pyridin-3-yl-isothiazolo[5,4-c]pyridine-5-carbonyl)-amino]-acetic acid]
97.1	O=C(O)CNC(=O)c1nc(-c2ccncc2)c2snc(-c3ccccc3)c2c1O [Example 5, [(4-Hydroxy-3-phenyl-7-pyridin-4-yl-isothiazolo[5,4-c]pyridine-5-carbonyl)-amino]-acetic acid]
100	O=C(O)CNC(=O)c1nc(Br)c2snc(-c3ccc(F)cc3)c2c1O [Example 7, {[7-Bromo-3-(4-fluoro-phenyl)-4-hydroxy-isothiazolo[5,4-c]pyridine-5-carbonyl]-amino}-acetic acid]
